In this experiment the target is T1, human NEP (Homo sapiens, UniProt P08473).
T1 construct: purchased R&D Systems, Minneapolis, Minn; 1182-ZN
Put plainly: In vitro enzyme inhibition assay at human NEP (Assay 1). The following applies: recombinant human NEP, fluorogenic peptide substrate 10 μM, 37° C.; values may be affected by hydrolysis in the assay conditions, approximations; read-out: pKi at human NEP (converted). It counts as biochemical. As to the method: The inhibitory activities of compounds at human and rat neprilysin (EC 3.4.24.11; NEP) and human angiotensin converting enzyme (ACE) were determined using in vitro assays as described below.
Recombinant human NEP and recombinant human ACE were obtained commercially (R&D Systems, Minneapolis, Minn., catalog numbers 1182-ZN and 929-ZN, respectively). The fluorogenic peptide substrate Mca-D-Arg-Arg-Leu-Dap-(Dnp)-OH (Medeiros et al. (1997) Braz. J. Med. Biol. Res. 30:1157-62; Anaspec, San Jose, Calif.) and Abz-Phe-Arg-Lys(Dnp)-Pro-OH (Araujo et al. (2000) Biochemistry 39:8519-8525; Bachem, Torrance, Calif.) were used in the NEP and ACE assays respectively.
The assays were performed in 384-well white opaque plates at 37° C. using the fluorogenic peptide substrates at a concentration of 10 μM in Assay Buffer (NEP: 50 mM HEPES, pH 7.5, 100 mM NaCl, 0.01% polyethylene glycol sorbitan monolaurate (Tween-20), 10 μM ZnSO4; ACE: 50 mM HEPES, pH 7.5, 100 mM NaCl, 0.01% Tween-20, 1 μM ZnSO4).
Test compounds were assayed over the range of concentrations from […] to 20 μM. Test compounds were added to the enzymes and incubated for 30 minute at 37° C. prior to initiating the reaction by the addition of substrate. Reactions were terminated after 20 minutes of incubation at 37° C. by the addition of glacial acetic acid to a final concentration of 3.6% (v/v).
Plates were read on a fluorometer with excitation and emission wavelengths set to 320 nm and 405 nm, respectively Inhibition constants were obtained by nonlinear regression of the data using the equation (GraphPad Software, Inc., San Diego, Calif.): v=v0/[1+(I/K′)] where v is the reaction rate, v0 is the uninhibited reaction rate, I is the inhibitor concentration and K′ is the apparent inhibition constant.
Compounds of the invention were tested in this assay and found to have pKi values at human NEP as follows, noting however, that these values may be affected by hydrolysis in the assay conditions and are therefore approximations of activity.

T1 sequence (P08473 52-750 limits assumed): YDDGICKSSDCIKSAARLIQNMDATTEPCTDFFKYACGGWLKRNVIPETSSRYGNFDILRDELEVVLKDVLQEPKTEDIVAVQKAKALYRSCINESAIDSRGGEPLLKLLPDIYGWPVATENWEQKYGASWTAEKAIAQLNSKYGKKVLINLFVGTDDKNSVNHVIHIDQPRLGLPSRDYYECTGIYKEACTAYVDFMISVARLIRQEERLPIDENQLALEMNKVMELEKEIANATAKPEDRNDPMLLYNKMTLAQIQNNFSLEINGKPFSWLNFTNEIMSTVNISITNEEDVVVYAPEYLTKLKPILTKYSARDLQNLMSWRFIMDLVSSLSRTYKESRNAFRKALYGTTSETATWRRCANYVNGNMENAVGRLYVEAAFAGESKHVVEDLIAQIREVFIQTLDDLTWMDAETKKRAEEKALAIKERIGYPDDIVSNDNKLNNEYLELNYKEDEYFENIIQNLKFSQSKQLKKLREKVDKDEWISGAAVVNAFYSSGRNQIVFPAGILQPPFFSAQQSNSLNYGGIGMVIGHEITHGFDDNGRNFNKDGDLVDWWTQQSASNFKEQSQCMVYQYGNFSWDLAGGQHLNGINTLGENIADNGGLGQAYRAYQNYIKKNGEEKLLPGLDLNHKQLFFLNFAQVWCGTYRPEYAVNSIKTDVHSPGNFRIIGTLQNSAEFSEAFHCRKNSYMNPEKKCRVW

With `O=C(N[C@H](Cc1ccc(-c2ccccc2)cc1)C[C@@H](O)C(=O)OCCCCOc1no[n+]([O-])c1S(=O)(=O)c1ccccc1)c1cc(O)no1` [Example 2, (2R,4R)-5-Biphenyl-4-yl-2-hydroxy-4-[(3-hydroxyisoxazole-5-carbonyl)amino]pentanoic Acid 4-(4-Benzenesulfonyl-5-oxyfurazan-3-yloxy)butyl Ester], the Ki was 31.6 to 100 nM.
`O=C(O)C(=O)N[C@H](Cc1ccc(-c2ccccc2)cc1)C[C@@H](O)C(=O)OCCCCO[N+](=O)[O-]` [Example 3, (2R,4R)-5-Biphenyl-4-yl-2-hydroxy-4-(oxalylamino)-pentanoic Acid 4-Nitrooxybutyl Ester]: the Ki was 316 to 1000 nM.
The figure for `O=C(N[C@H](Cc1ccc(-c2ccccc2)cc1)C[C@@H](O)C(=O)OCCCCO[N+](=O)[O-])c1cc(O)no1` [Example 1, (2R,4R)-5-Biphenyl-4-yl-2-hydroxy-4-[(3-hydroxyisoxazole-5-carbonyl)amino]pentanoic Acid 4-Nitrooxybutyl Ester] is 31.6 to 100 nM.
The value for `O=C(O)C(=O)N[C@H](Cc1ccc(-c2ccccc2)cc1)C[C@@H](O)C(=O)OCCCCOc1no[n+]([O-])c1S(=O)(=O)c1ccccc1` [Example 4, (2R,4R)-5-Biphenyl-4-yl-2-hydroxy-4-(oxalylamino)-pentanoic Acid 4-(4-Benzenesulfonyl-5-oxyfurazan-3-yloxy)butyl Ester] was 316 to 1000 nM.

The values are drawn from patent US9045443B2, “Nitric oxide donor neprilysin inhibitors” (Theravance Biopharma R&D IP, LLC, priority 2012, dated 2015).
